According to patent US20260250290A1 (BRISTOL-MYERS SQUIBB COMPANY, priority 2023, published 2026):
Structures can show the parent of a compound that is named as a salt.

The compounds below were run against T1, full length SGK1 (Homo sapiens, UniProt O00141) (assay: SGK1 inhibition Assay A (Caliper LabChip electrophoretic separation of fluorescent peptide substrate and phosphorylated product)). Conditions: Assay A; 20 μM ATP, 40 min incubation; read-out: SGK1 IC50.
T1 construct: 125 μM full length SGK1 (Life Technologies Part #PR7358A); purchased Life Technologies PR7358A
T1 sequence (O00141 1-431): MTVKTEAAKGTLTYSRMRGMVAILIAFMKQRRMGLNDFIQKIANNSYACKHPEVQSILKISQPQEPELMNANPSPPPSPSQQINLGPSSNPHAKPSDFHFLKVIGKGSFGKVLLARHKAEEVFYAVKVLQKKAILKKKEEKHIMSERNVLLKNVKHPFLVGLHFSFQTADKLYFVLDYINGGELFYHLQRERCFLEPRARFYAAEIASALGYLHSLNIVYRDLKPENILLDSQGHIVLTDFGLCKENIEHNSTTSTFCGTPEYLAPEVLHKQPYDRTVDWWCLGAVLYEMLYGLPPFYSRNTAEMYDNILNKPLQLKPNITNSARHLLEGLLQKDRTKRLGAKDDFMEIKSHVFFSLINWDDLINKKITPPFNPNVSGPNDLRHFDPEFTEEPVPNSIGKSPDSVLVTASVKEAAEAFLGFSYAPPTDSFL
Format: biochemical

| Structure (SMILES) | IC50 [nM] |
| --- | --- |
| CC(C)(C)OC(=O)N[C@@H]1CCCN(c2cc(-c3ccc(S(C)(=O)=O)cc3)n3ncnc(N)c23)C1 [Example 11, tert-butyl (R)-(1-(4-amino-7-(4-(methylsulfonyl)phenyl)pyrrolo[2,1-f][1,2,4]triazin-5-yl)piperidin-3-yl)carbamate] | 1750 |
| CS(=O)(=O)c1ccc(-c2cc(N3CCC[C@@H](NC(=O)c4ccccc4)C3)c3c(N)ncnn23)cc1 [Example 13, (R)—N-(1-(4-amino-7-(4-(methylsulfonyl)phenyl)pyrrolo[2,1-f][1,2,4]triazin-5-yl)piperidin-3-yl)benzamide] | 28 |
| CS(=O)(=O)c1ccc(-c2cc(N3CCC[C@@H](NC(=O)Cc4ccccc4)C3)c3c(N)ncnn23)cc1 [Example 14, (R)-N-(1-(4-amino-7-(4-(methylsulfonyl)phenyl)pyrrolo[2,1-f][1,2,4]triazin-5-yl)piperidin-3-yl)-2-phenylacetamide, TFA] | 941 |
| CS(=O)(=O)c1ccc(-c2cc(N3CCC[C@@H](NC(=O)CCc4ccccc4)C3)c3c(N)ncnn23)cc1 [Example 15, (R)-N-(1-(4-amino-7-(4-(methylsulfonyl)phenyl)pyrrolo[2,1-f][1,2,4]triazin-5-yl)piperidin-3-yl)-3-phenylpropanamide, TFA] | 499 |
| CS(=O)(=O)c1ccc(-c2cc(N3CCC[C@@H](NC(=O)C4CCCCC4)C3)c3c(N)ncnn23)cc1 [Example 16, (R)-N-(1-(4-amino-7-(4-(methylsulfonyl)phenyl)pyrrolo[2,1-f][1,2,4]triazin-5-yl)piperidin-3-yl) cyclohexanecarboxamide] | 324 |
| CS(=O)(=O)c1ccc(-c2cc(N3CCC[C@@H](NC(=O)C4CCOCC4)C3)c3c(N)ncnn23)cc1 [Example 17, (R)-N-(1-(4-amino-7-(4-(methylsulfonyl)phenyl)pyrrolo[2,1-f][1,2,4]triazin-5-yl)piperidin-3-yl)tetrahydro-2H-pyran-4-carboxamide, TFA] | 1300 |
| CS(=O)(=O)c1ccc(-c2cc(N3CCC[C@@H](NC(=O)c4ccccc4Cl)C3)c3c(N)ncnn23)cc1 [Example 19, (R)-N-(1-(4-amino-7-(4-(methylsulfonyl)phenyl)pyrrolo[2,1-f][1,2,4]triazin-5-yl)piperidin-3-yl)-2-chlorobenzamide] | 274 |
| CS(=O)(=O)c1ccc(-c2cc(N3CCC[C@@H](NC(=O)c4ccccc4F)C3)c3c(N)ncnn23)cc1 [Example 20, (R)-N-(1-(4-amino-7-(4-(methylsulfonyl)phenyl)pyrrolo[2,1-f][1,2,4]triazin-5-yl)piperidin-3-yl)-2-fluorobenzamide] | 47 |
| CS(=O)(=O)c1ccc(-c2cc(N3CCC[C@@H](NC(=O)c4cccc(Cl)c4)C3)c3c(N)ncnn23)cc1 [Example 21, (R)-N-(1-(4-amino-7-(4-(methylsulfonyl)phenyl)pyrrolo[2,1-f][1,2,4]triazin-5-yl)piperidin-3-yl)-3-chlorobenzamide] | 13 |
| COc1cccc(C(=O)N[C@@H]2CCCN(c3cc(-c4ccc(S(C)(=O)=O)cc4)n4ncnc(N)c34)C2)c1 [Example 22, (R)-N-(1-(4-amino-7-(4-(methylsulfonyl)phenyl)pyrrolo[2,1-f][1,2,4]triazin-5-yl)piperidin-3-yl)-3-methoxybenzamide] | 12 |
| Cc1cccc(C(=O)N[C@@H]2CCCN(c3cc(-c4ccc(S(C)(=O)=O)cc4)n4ncnc(N)c34)C2)c1 [Example 23, (R)-N-(1-(4-amino-7-(4-(methylsulfonyl)phenyl)pyrrolo[2,1-f][1,2,4]triazin-5-yl)piperidin-3-yl)-3-methylbenzamide] | 11 |
| CS(=O)(=O)c1ccc(-c2cc(N3CCC[C@@H](NC(=O)c4cccc(C(F)(F)F)c4)C3)c3c(N)ncnn23)cc1 [Example 24, (R)-N-(1-(4-amino-7-(4-(methylsulfonyl)phenyl)pyrrolo[2,1-f][1,2,4]triazin-5-yl)piperidin-3-yl)-3-(trifluoromethyl) benzamide] | 41 |
| CS(=O)(=O)c1ccc(-c2cc(N3CCC[C@@H](NC(=O)c4ccc(F)cc4)C3)c3c(N)ncnn23)cc1 [Example 25, (R)-N-(1-(4-amino-7-(4-(methylsulfonyl)phenyl)pyrrolo[2,1-f][1,2,4]triazin-5-yl)piperidin-3-yl)-4-fluorobenzamide] | 22 |
| CS(=O)(=O)c1ccc(-c2cc(N3CCC[C@@H](NC(=O)c4ccc(F)c(F)c4)C3)c3c(N)ncnn23)cc1 [Example 26, (R)-N-(1-(4-amino-7-(4-(methylsulfonyl)phenyl)pyrrolo [2,1-f][1,2,4]triazin-5-yl)piperidin-3-yl)-3,4-difluorobenzamide] | 19 |
| CS(=O)(=O)c1ccc(-c2cc(N3CCC[C@@H](NC(=O)c4ccncc4)C3)c3c(N)ncnn23)cc1 [Example 27, (R)-N-(1-(4-amino-7-(4-(methylsulfonyl)phenyl)pyrrolo[2,1-f][1,2,4]triazin-5-yl)piperidin-3-yl)isonicotinamide] | 12 |
| Cn1cc(C(=O)N[C@@H]2CCCN(c3cc(-c4ccc(S(C)(=O)=O)cc4)n4ncnc(N)c34)C2)cn1 [Example 28, (R)-N-(1-(4-amino-7-(4-(methylsulfonyl)phenyl)pyrrolo[2,1-f][1,2,4]triazin-5-yl)piperidin-3-yl)-1-methyl-1H-pyrazole-4-carboxamide] | 32 |
| CS(=O)(=O)c1ccc(-c2cc(N3CCC[C@@H](NC(=O)C4CC5(CCC5)C4)C3)c3c(N)ncnn23)cc1 [Example 29, (R)-N-(1-(4-amino-7-(4-(methylsulfonyl)phenyl)pyrrolo [2,1-f][1,2,4]triazin-5-yl)piperidin-3-yl)spiro[3.3]heptane-2-carboxamide] | 181 |
| CS(=O)(=O)c1ccc(-c2cc(N3CCC[C@@H](NC(=O)c4ccnnc4)C3)c3c(N)ncnn23)cc1 [Example 30, (R)-N-(1-(4-amino-7-(4-(methylsulfonyl)phenyl)pyrrolo[2,1-f][1,2,4]triazin-5-yl)piperidin-3-yl)pyridazine-4-carboxamide] | 65 |
| CS(=O)(=O)c1ccc(-c2cc(N3CCC[C@@H](NC(=O)c4ccncn4)C3)c3c(N)ncnn23)cc1 [Example 31, (R)-N-(1-(4-amino-7-(4-(methylsulfonyl)phenyl)pyrrolo[2,1-f][1,2,4]triazin-5-yl)piperidin-3-yl)pyrimidine-4-carboxamide] | 112 |
| CS(=O)(=O)c1ccc(-c2cc(N3CCC[C@@H](NC(=O)c4ccnc(F)c4)C3)c3c(N)ncnn23)cc1 [Example 32, (R)-N-(1-(4-amino-7-(4-(methylsulfonyl)phenyl)pyrrolo[2,1-f][1,2,4]triazin-5-yl)piperidin-3-yl)-2-fluoroisonicotinamide, TFA] | 11 |
| Cc1cc(C(=O)N[C@@H]2CCCN(c3cc(-c4ccc(S(C)(=O)=O)cc4)n4ncnc(N)c34)C2)ccn1 [Example 33, (R)-N-(1-(4-amino-7-(4-(methylsulfonyl)phenyl)pyrrolo[2,1-f][1,2,4]triazin-5-yl)piperidin-3-yl)-2-methylisonicotinamide] | 9 |
| C#Cc1cccc(C(=O)N[C@@H]2CCCN(c3cc(-c4ccc(S(C)(=O)=O)cc4)n4ncnc(N)c34)C2)c1 [Example 34, (R)-N-(1-(4-amino-7-(4-(methylsulfonyl)phenyl)pyrrolo[2,1-f][1,2,4]triazin-5-yl)piperidin-3-yl)-3-ethynylbenzamide] | 24 |
| Cc1cc(C(=O)N[C@@H]2CCCN(c3cc(-c4ccc(S(C)(=O)=O)cc4)n4ncnc(N)c34)C2)cc(C)n1 [Example 35, (R)-N-(1-(4-amino-7-(4-(methylsulfonyl)phenyl)pyrrolo[2,1-f][1,2,4]triazin-5-yl)piperidin-3-yl)-2,6-dimethylisonicotinamide] | 21 |
| CS(=O)(=O)c1ccc(-c2cc(N3CCC[C@@H](NC(=O)c4cn5ccccc5n4)C3)c3c(N)ncnn23)cc1 [Example 36] | 41 |
| CS(=O)(=O)c1ccc(-c2cc(N3CCC[C@@H](NC(=O)c4cnc[nH]4)C3)c3c(N)ncnn23)cc1 [Example 37, (R)-N-(1-(4-amino-7-(4-(methylsulfonyl)phenyl)pyrrolo[2,1-f][1,2,4]triazin-5-yl)piperidin-3-yl)-1H-imidazole-5-carboxamide, TFA] | 136 |
| CS(=O)(=O)c1ccc(-c2cc(N3CCC[C@@H](NC(=O)c4ccn[nH]4)C3)c3c(N)ncnn23)cc1 [Example 38, (R)-N-(1-(4-amino-7-(4-(methylsulfonyl)phenyl)pyrrolo[2,1-f][1,2,4]triazin-5-yl)piperidin-3-yl)-1H-pyrazole-5-carboxamide] | 22 |
| CS(=O)(=O)c1ccc(-c2cc(N3CCC[C@@H](NC(=O)c4ccnc(N)c4)C3)c3c(N)ncnn23)cc1 [Example 39, (R)-2-amino-N-(1-(4-amino-7-(4-(methylsulfonyl)phenyl)pyrrolo [2,1-f][1,2,4]triazin-5-yl)piperidin-3-yl)isonicotinamide] | 48 |
| Cc1cc(C(=O)N[C@@H]2CCCN(c3cc(-c4ccc(S(C)(=O)=O)cc4)n4ncnc(N)c34)C2)cc(=O)[nH]1 [Example 40, (R)-N-(1-(4-amino-7-(4-(methylsulfonyl)phenyl)pyrrolo[2,1-f][1,2,4]triazin-5-yl)piperidin-3-yl)-6-methyl-2-oxo-1,2-d1Hydropyridine-4-carboxamide, TFA] | 115 |
| CS(=O)(=O)c1ccc(-c2cc(N3CCC[C@@H](NC(=O)c4ccns4)C3)c3c(N)ncnn23)cc1 [Example 41, (R)-N-(1-(4-amino-7-(4-(methylsulfonyl)phenyl)pyrrolo[2,1-f][1,2,4]triazin-5-yl)piperidin-3-yl)isothiazole-5-carboxamide, TFA] | 5 |
